Test results published in patent US20050106592A1, “Method for identifying a pharmacologically active substance” (priority 2002, published 2005).

Tests used:
[1] = molecular target: T1, ACE from pig kidney (EC 3.4.15.1) (Sus scrofa, UniProt F1RRW5); format: biochemical; settings: relative to Captopril
T1 construct: angiotensin-converting-enzyme derived from pig kidney; purchased Sigma; host or cells: pig kidney (tissue-derived enzyme)
T1 sequence (F1RRW5 34-1309): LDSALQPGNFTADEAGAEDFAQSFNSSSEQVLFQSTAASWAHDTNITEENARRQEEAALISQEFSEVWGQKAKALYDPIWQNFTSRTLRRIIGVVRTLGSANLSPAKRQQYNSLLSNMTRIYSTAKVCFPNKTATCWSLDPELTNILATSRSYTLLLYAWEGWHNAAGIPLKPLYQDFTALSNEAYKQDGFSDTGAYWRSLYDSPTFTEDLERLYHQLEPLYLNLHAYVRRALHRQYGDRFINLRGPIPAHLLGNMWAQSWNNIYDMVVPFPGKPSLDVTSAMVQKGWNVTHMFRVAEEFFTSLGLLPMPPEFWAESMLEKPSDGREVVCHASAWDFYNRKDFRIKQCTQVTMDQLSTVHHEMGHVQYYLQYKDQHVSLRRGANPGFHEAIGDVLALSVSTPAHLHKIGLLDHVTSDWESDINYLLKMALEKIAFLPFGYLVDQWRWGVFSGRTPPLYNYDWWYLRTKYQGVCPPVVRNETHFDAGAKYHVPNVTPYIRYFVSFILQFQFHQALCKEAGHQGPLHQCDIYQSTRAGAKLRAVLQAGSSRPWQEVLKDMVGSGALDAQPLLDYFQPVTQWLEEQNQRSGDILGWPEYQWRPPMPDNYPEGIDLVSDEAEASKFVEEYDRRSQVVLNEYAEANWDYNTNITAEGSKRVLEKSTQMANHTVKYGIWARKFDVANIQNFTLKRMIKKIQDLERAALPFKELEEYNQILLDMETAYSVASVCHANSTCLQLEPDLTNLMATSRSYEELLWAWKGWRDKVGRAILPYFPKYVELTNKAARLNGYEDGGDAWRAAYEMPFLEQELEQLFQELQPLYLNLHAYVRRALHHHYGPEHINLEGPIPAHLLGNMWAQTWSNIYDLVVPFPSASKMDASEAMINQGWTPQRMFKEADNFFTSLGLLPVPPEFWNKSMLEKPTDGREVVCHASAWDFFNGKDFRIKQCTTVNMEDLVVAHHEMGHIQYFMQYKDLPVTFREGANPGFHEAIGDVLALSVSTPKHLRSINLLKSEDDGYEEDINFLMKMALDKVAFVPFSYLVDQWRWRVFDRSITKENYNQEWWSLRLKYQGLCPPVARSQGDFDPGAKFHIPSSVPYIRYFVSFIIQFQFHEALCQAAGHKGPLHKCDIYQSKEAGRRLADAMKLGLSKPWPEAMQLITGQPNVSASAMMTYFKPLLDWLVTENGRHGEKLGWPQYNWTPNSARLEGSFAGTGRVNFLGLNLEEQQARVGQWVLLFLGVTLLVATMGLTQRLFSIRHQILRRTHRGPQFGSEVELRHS
Protocol: These peptides were investigated for their inhibitory effect using an in vitro-ACE-inhibitor-assay with an angiotensin-converting-enzyme derived from pig kidney. Hippuryl-histidyl-leucin was used as a substrate.
The assay was performed in 96 well HTRF-plates (Packard). The concentrations used for each well were: 1 mU ACE from pig kidney (EC 3.4.15.1 (Sigma)) in 30 μl of assay buffer (25 mM HEPES; 0,3 M NaCl, pH 8.2) and 20 μl inhibitor dissolved in assay buffer (0.35-200 μM). The reaction was started by adding 50 μl of 2 mM hippuryl-histidyl-leucin (Sigma) in assay buffer. The reaction was performed at room temperature (22° C.) for 30 minutes and terminated by adding 50 μl 1 M NaOH. Afterwards 50 μl of 0.5% ortho-phtalaldehyd (Sigma) in methanol were added, 5 minutes later followed by 50 μl of 2.5 M HCl-solution to stabilize the developed fluorescence product.
The results were used to calculate the % inhibition. The IC50-values were determined graphically from a curve showing the dose-reaction ratio.
In order to minimize errors due to time-dependent differences, all pipetting steps were performed in a precise time schedule.

normotensive Wister rats = experiment: bradykinin-potentiating effect: blood pressure measurement in anaesthetized normotensive rats; format: in vivo, rat
Protocol: These experiments were conducted with normotensive rats and the short-time decrease of blood pressure induced by bradykinin (and caused by vasodilatation) was measured. […] Furthermore, S545 (also corresponds to proANP48-57) was also tested in vivo at hypertensive rats (FIG. 7).
In the in vivo experiments with normotensive rats the animals were previously anaesthetized and after blood pressure stabilization treated with a constant amount of bradykinin. Subsequently, either Captopril or human BPP were administered, again followed by a constant amount of bradykinin. Afterwards the maximal blood pressure drop was determined and, on the basis of bradykinin as a factor 1, the potentiating factor was determined. In the same way, the systolic and diastolic blood pressure, the percentage middle pressure decrease and the time required to come back to the baseline values were measured (see tables 4a to 4j). A detailed experimental description is given below.
The trials were conducted on female anaesthetized normotensive Wister rats with weight ranging from 210 to 240 g.
The peptide pANP48-57 used for the in vivo assays was synthesized by Biosynthan (Berlin) with a HPLC-determined purity of 98%. […]
The middle pressure was determined from the measured diastolic (pd) and systolic (ps) blood pressure by using the following formula: pm=(ps−pd)×0.42+pd.

With CC(C)C[C@H](NC(=O)[C@H](C)N)C(=O)N[C@@H](CO)C(=O)N1CCC[C@H]1C(=O)N[C@@H](CC(C)C)C(=O)N1CCC[C@H]1C(=O)N[C@@H](CCC(=O)O)C(=O)N[C@H](C(=O)N1CCC[C@H]1C(=O)N1CCC[C@H]1C(=O)O)C(C)C [Peptide S545] the “dose necessary in the ACE-assay to reach the same effect as with Captopril” value [1] was 1000 fold, the “molecular concentration required for the bradykinin-potentiating effect in vivo in comparison to Captopril” value (normotensive Wister rats; in vivo, relative to Captopril) was 10 fold and the “bradykinin-potentiating effect (short-time decrease of blood pressure induced by bradykinin)” value (normotensive Wister rats; normotensive rats, anaesthetized, i.v.) was “concentration dependent bradykinin-potentiating”.
